# Source: PMC4992173, “Divergent synthesis and identification of the cellular targets of deoxyelephantopins” (Nature Communications, 2016)
# Target: T1, Protein HGH1 homolog (HGH1) (Homo sapiens, UniProt Q9BTY7)
# T1 construct: 1,522 proteins were enriched from MCF7 cells by 10 μM probe 24c; endogenous in cells; host or cells: MCF7
# Assay: In situ competitive profiling in live MCF7 cells (LFQ): HGH1
# Format: cell-based
# Details: 4 h, then 10 µM 24c, n=4
# Description: In our efforts to determine the direct molecular targets of deoxyelephantopin we first performed a gel-based competitive in situ proteomic profiling assay[41] […] While the greater conformational flexibility of probe 24c could potentially lead to more promiscuous target engagement relatively to deoxyelephantopin, it was favoured based on the fact that an alkyne moiety appended to the rigid scaffold of deoxyelephantopin may hinder some of its interactions. MCF7 cells were pretreated with various concentrations of deoxyelephantopin for 4 h, harvested, lysed and the lysates were treated with the fluorogenic probe 24c-Cy3 (10 μM; Supplementary Fig. 10). […] Furthermore, cells were pretreated with 20 μM concentration of deoxyelephantopin or 24c and the proteomic profiles were compared (Fig. 6b, Supplementary Fig. 11). Multiple bands were detected that were equally competed by both DEP and 24c, thus again confirming that 24c can be used as an acceptable clickable analogue of deoxyelephantopin in pulldown assays. Having established the optimal labelling conditions by SDS–PAGE, we next carried out a mass spectrometry-based competitive profiling assay[42] coupled with the method of stable isotope labelling of amino acids in culture (SILAC)[43]. […]
# Figure 6 Proteome-wide identification of deoxyelephantopin targets. […] Quantification was performed using label-free quantification (LFQ) method (n=4). […]
# T1 sequence (Q9BTY7 whole entry): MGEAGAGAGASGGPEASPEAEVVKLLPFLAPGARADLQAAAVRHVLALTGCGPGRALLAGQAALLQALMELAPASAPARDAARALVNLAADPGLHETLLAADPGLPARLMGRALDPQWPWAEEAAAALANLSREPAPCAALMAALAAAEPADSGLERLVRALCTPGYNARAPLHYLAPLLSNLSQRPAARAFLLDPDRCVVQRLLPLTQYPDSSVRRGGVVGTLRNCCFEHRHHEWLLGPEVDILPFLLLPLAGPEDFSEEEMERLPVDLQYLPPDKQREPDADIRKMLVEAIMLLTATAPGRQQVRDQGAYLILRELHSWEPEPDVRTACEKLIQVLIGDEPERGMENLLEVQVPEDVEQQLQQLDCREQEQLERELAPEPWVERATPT
smiles,measurement,value
C=C(C)C(=O)O[C@H]1CC2=C[C@@H](C/C(C)=C/[C@H]3OC(=O)C(=C)[C@H]13)OC2=O [deoxyelephantopin],LFQ ratio 20 µM Deoxyelephantopin/DMSO with 24c,0.00
